According to publication PMC6988736 (Bioorganic & medicinal chemistry letters, 2017):
Read-outs that look alike come from different tables or passages of the source.

What was measured:
[1] = target: T1, hTRPV1 (Homo sapiens, UniProt Q8NER1); assay: hTRPV1 antagonism, inhibition of activation by capsaicin; format: cell-based; settings: for hTRPV1 antagonism toward capsaicin (in words): hTRPV1 in CHO cells, capsaicin 100 nM; for inhibition at 5 µM: CHO, read-out: inhibition% at 5 μM
[2] = target: T1, hTRPV1; assay: hTRPV1 antagonism, activation by heat; format: cell-based
[3] = target: T1, hTRPV1; settings: read-out: heat 45 °C, IC50; hTRPV1, activator heat 45 °C; previous lead; ref [9]; cited from earlier work

T1 sequence (Q8NER1 whole entry): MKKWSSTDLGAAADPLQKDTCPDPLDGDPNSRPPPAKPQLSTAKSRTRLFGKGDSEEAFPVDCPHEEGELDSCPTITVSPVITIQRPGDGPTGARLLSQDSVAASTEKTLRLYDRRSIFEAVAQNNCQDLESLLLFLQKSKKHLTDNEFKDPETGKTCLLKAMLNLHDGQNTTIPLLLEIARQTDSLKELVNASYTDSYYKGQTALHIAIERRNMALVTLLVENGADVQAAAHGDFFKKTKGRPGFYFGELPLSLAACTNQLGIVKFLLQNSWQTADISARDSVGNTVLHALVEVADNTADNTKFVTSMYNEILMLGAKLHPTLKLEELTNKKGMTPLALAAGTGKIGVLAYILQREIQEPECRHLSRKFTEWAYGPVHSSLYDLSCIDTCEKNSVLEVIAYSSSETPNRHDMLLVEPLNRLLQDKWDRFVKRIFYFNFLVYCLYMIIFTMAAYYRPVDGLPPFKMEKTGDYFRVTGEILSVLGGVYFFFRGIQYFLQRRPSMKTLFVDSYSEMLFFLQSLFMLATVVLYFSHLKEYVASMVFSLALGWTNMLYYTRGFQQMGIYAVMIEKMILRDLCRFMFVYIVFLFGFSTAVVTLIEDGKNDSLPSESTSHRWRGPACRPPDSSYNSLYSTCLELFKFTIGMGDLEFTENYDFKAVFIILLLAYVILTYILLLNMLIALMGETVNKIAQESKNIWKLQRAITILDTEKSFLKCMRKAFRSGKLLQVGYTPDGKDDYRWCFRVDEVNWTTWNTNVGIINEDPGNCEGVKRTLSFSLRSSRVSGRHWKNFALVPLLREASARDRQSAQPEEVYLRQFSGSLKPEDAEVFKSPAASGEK

| hTRPV1 antagonism toward capsaicin (in words) [1] | inhibition at 5 µM [1] | Compound | other results |
| --- | --- | --- | --- |
| dramatic reduction in activity |  | COc1ccc(-n2nc(C(C)(C)C)cc2CNC(=O)C(C)c2ccc(NS(C)(=O)=O)c(F)c2)cc1 (stereo not shown) [Compound 9] |  |
| dramatic reduction in activity |  | CC(C(=O)NCc1cc(C(C)(C)C)nn1-c1ccc(C(C)(C)C)cc1)c1ccc(NS(C)(=O)=O)c(F)c1 (stereo not shown) [Compound 11] |  |
| dramatic reduction in activity |  | Cc1ccc(/C=C/c2ccc(-n3nc(C(C)(C)C)cc3CNC(=O)C(C)c3ccc(NS(C)(=O)=O)c(F)c3)cc2)cc1 (stereo not shown) [Compound 12] |  |
|  |  | C[C@H](C(=O)NCc1cc(C(C)(C)C)nn1-c1cccc(Cl)c1)c1ccc(NS(C)(=O)=O)c(F)c1 [Compound 13S] | IC50 [2]: > 5000 nM |
| high potency |  | C[C@H](C(=O)NCc1cc(C(C)(C)C)nn1-c1ccc(F)c(Cl)c1)c1ccc(NS(C)(=O)=O)c(F)c1 [Compound 14S] |  |
| high potency |  | CC(C(=O)NCc1cc(C(C)(C)C)nn1-c1ccc(F)c(Cl)c1)c1ccc(NS(C)(=O)=O)c(F)c1 (stereo not shown) [Compound 14] |  |
|  | 46% | CC(C)(C)c1cc(CNC(=O)C(c2ccc(NS(C)(=O)=O)c(F)c2)C2CCCCC2)n(-c2cccc(Cl)c2)n1 (stereo not shown) [Compound 17] |  |
|  | 12% | Cc1ccc(C(C(=O)NCc2cc(C(C)(C)C)nn2-c2cccc(Cl)c2)c2ccc(NS(C)(=O)=O)c(F)c2)cc1 (stereo not shown) [Compound 18] |  |
|  | 49% | CC(C)(C)c1cc(CNC(=O)C(c2cccc(F)c2)c2ccc(NS(C)(=O)=O)c(F)c2)n(-c2cccc(Cl)c2)n1 (stereo not shown) [Compound 19] |  |
|  |  | CC1CCN(c2nc(C(F)(F)F)ccc2CNC(=O)[C@@H](C)c2ccc(NS(C)(=O)=O)c(F)c2)CC1 [GRT12360] | IC50 [3]: 0.8 nM |
